Counter-ions that a name gives are not always drawn.
Tested on: patients with schizophrenia in the acute exacerbation phase
Assay: First stage phase II clinical trial: safety (adverse events, serious adverse events, side effects, ECG, laboratory tests)
Assay type: in vivo, human
Experimental: According to the procedures as shown in Table 1 as described below, the placebo-controlled double blind experiment was done on 149 patients with schizophrenia in the acute exacerbation phase at 15 facilities in USA. The efficacy and safeness were studied when SM-13496 at a dose of 40 mg or 120 mg, or a placebo was orally administered once a day for 6 weeks after placebo washout.

[1] = 40 mg orally once a day for 6 weeks, 50 subjects

O=C1[C@@H]2[C@@H]3CC[C@@H](C3)[C@@H]2C(=O)N1C[C@@H]1CCCC[C@H]1CN1CCN(c2nsc3ccccc23)CC1 [SM-13496, (1R,2S,3R,4S)-N-[(1R,2R)-2-[4-(1,2-benzoisothiazol-3-yl)-1-piperazinyl-methyl]-1-cyclohexylmethyl]-2,3-bicyclo[2.2.1]heptanedicarboximide hydrochloride]
Relationship of the serious adverse events to the tested medicament (40 mg and 120 mg groups): denied | Body weight gain, bulimia, impotence, erectile dysfunction or convulsion (40 mg or 120 mg, 6 weeks): not observed | Change in 12-lead electrocardiogram (40 mg or 120 mg, 6 weeks): no clinically significant change | Number of subjects showing adverse events (%) [1]: 40 (80) number of subjects (%) | Number of subjects showing serious adverse events (%) [1]: 3 (6) number of subjects (%) | Number of subjects who drop out from the trial due to adverse events (%) [1]: 6 (12) number of subjects (%) | Ratio of the patients having an abnormal change in laboratory values among the groups (40 mg, 120 mg and placebo groups): no significant difference | Occurrence of adverse event: Akathisia (40 mg, 6 weeks, 50 subjects): 4 (8) number of subjects (%) | Occurrence of adverse event: Digestive disturbance (40 mg, 6 weeks, 50 subjects): 4 (8) number of subjects (%) | Occurrence of adverse event: Drowsiness (40 mg, 6 weeks, 50 subjects): 4 (8) number of subjects (%) | Occurrence of adverse event: Exacerbation of schizophrenia (40 mg, 6 weeks, 50 subjects): 2 (4) number of subjects (%) | Occurrence of adverse event: Free-floating vertigo (excluding rotatory vertigo) (40 mg, 6 weeks, 50 subjects): 6 (12) number of subjects (%) | Occurrence of adverse event: Headache (40 mg, 6 weeks, 50 subjects): 8 (16) number of subjects (%) | Occurrence of adverse event: Nausea (40 mg, 6 weeks, 50 subjects): 5 (10) number of subjects (%) | Occurrence of adverse event: Suppression (40 mg, 6 weeks, 50 subjects): 9 (18) number of subjects (%) | Occurrence of serious adverse event: Exacerbation of paranoia (40 mg, 6 weeks, 50 subjects): 1 (2) number of subjects (%) | Occurrence of serious adverse event: Exacerbation of schizophrenia (40 mg, 6 weeks, 50 subjects): 1 (2) number of subjects (%) | Occurrence of serious adverse event: Paranoid schizophrenia (40 mg, 6 weeks, 50 subjects): 0 (0) number of subjects (%) | Occurrence of serious adverse event: Psychosis aggravated (40 mg, 6 weeks, 50 subjects): 1 (2) number of subjects (%) | Occurrence of side effects (%) (40 mg, 6 weeks, 50 subjects): 33 (66) number of subjects (%) | Serious adverse events: Total (%) (40 mg, 6 weeks, 50 subjects): 3 (6) number of subjects (%) | Side effect: Abdominal pain (Gastroenteric disturbance) (40 mg, 6 weeks, 50 subjects): 0 (0) number of subjects (%) | Side effect: Abnormal electrocardiogram (Laboratory assay) (40 mg, 6 weeks, 50 subjects): 0 (0) number of subjects (%) | Side effect: Abnormal liver function tests (Laboratory assay) (40 mg, 6 weeks, 50 subjects): 0 (0) number of subjects (%) | Side effect: Agitation (Mental disturbance) (40 mg, 6 weeks, 50 subjects): 0 (0) number of subjects (%) | Side effect: Agitation aggravated (Mental disturbance) (40 mg, 6 weeks, 50 subjects): 0 (0) number of subjects (%) | Side effect: Akathisia (Nervous system disorder) (40 mg, 6 weeks, 50 subjects): 4 (8) number of subjects (%) | Side effect: Akathisia aggravated (Nervous system disorder) (40 mg, 6 weeks, 50 subjects): 1 (2) number of subjects (%) | Side effect: Anarthria (Nervous system disorder) (40 mg, 6 weeks, 50 subjects): 0 (0) number of subjects (%) | Side effect: Anorexia (Metabolic disturbances and nutritional disturbance) (40 mg, 6 weeks, 50 subjects): 1 (2) number of subjects (%) | Side effect: Anxiety aggravated (Mental disturbance) (40 mg, 6 weeks, 50 subjects): 1 (2) number of subjects (%) | Side effect: Articular rigidity (Musculoskeletal system and connective tissue disorder) (40 mg, 6 weeks, 50 subjects): 1 (2) number of subjects (%) | Side effect: Blurred vision (Ocular disturbance) (40 mg, 6 weeks, 50 subjects): 1 (2) number of subjects (%) | Side effect: Breathing difficulty (Disturbance in respiratory organ, chest and mediastinum) (40 mg, 6 weeks, 50 subjects): 0 (0) number of subjects (%) | Side effect: Cervical rigidity (Musculoskeletal system and connective tissue disorder) (40 mg, 6 weeks, 50 subjects): 1 (2) number of subjects (%) | Side effect: Cogwheel rigidity (Nervous system disorder) (40 mg, 6 weeks, 50 subjects): 0 (0) number of subjects (%) | Side effect: Constipation (Gastroenteric disturbance) (40 mg, 6 weeks, 50 subjects): 2 (4) number of subjects (%) | Side effect: Decrease in appetite (Metabolic disturbances and nutritional disturbance) (40 mg, 6 weeks, 50 subjects): 1 (2) number of subjects (%) | Side effect: Diarrhea (Gastroenteric disturbance) (40 mg, 6 weeks, 50 subjects): 3 (6) number of subjects (%) | Side effect: Drowsiness (Nervous system disorder) (40 mg, 6 weeks, 50 subjects): 4 (8) number of subjects (%) | Side effect: Dry eye (Ocular disturbance) (40 mg, 6 weeks, 50 subjects): 0 (0) number of subjects (%) | Side effect: Dry mouth (Gastroenteric disturbance) (40 mg, 6 weeks, 50 subjects): 0 (0) number of subjects (%) | Side effect: Dyspepsia (Gastroenteric disturbance) (40 mg, 6 weeks, 50 subjects): 3 (6) number of subjects (%) | Side effect: Dystonic reaction (Nervous system disorder) (40 mg, 6 weeks, 50 subjects): 1 (2) number of subjects (%) | Side effect: Exacerbation of insomnia (Mental disturbance) (40 mg, 6 weeks, 50 subjects): 0 (0) number of subjects (%) | Side effect: External otitis (Infection and parasitosis) (40 mg, 6 weeks, 50 subjects): 1 (2) number of subjects (%) | Side effect: Extrapyramidal disease (Nervous system disorder) (40 mg, 6 weeks, 50 subjects): 1 (2) number of subjects (%) | Side effect: Fatigue (Total disability and local condition) (40 mg, 6 weeks, 50 subjects): 3 (6) number of subjects (%) | Side effect: Fatigue aggravated (Total disability and local condition) (40 mg, 6 weeks, 50 subjects): 1 (2) number of subjects (%) | Side effect: Flatulence (Gastroenteric disturbance) (40 mg, 6 weeks, 50 subjects): 1 (2) number of subjects (%) | Side effect: Flushing (Vascular diseases) (40 mg, 6 weeks, 50 subjects): 0 (0) number of subjects (%) | Side effect: Free-floating vertigo (excluding rotatory vertigo) (Nervous system disorder) (40 mg, 6 weeks, 50 subjects): 5 (10) number of subjects (%) | Side effect: Frequent urination (Renal Injury and urinary disorder) (40 mg, 6 weeks, 50 subjects): 0 (0) number of subjects (%) | Side effect: Glossoplegia (Nervous system disorder) (40 mg, 6 weeks, 50 subjects): 0 (0) number of subjects (%) | Side effect: Headache (Nervous system disorder) (40 mg, 6 weeks, 50 subjects): 6 (12) number of subjects (%) | Side effect: Heavy feeling (Musculoskeletal system and connective tissue disorder) (40 mg, 6 weeks, 50 subjects): 1 (2) number of subjects (%) | Side effect: Hot flashes (Vascular diseases) (40 mg, 6 weeks, 50 subjects): 0 (0) number of subjects (%) | Side effect: Hot sensation (Total disability and local condition) (40 mg, 6 weeks, 50 subjects): 0 (0) number of subjects (%) | Side effect: Increase in creatine phosphokinase level in the blood (Laboratory assay) (40 mg, 6 weeks, 50 subjects): 1 (2) number of subjects (%) | Side effect: Increase in prolactin level in the blood (Laboratory assay) (40 mg, 6 weeks, 50 subjects): 1 (2) number of subjects (%) | Side effect: Increase in total protein (Laboratory assay) (40 mg, 6 weeks, 50 subjects): 1 (2) number of subjects (%) | Side effect: Insomnia (Mental disturbance) (40 mg, 6 weeks, 50 subjects): 1 (2) number of subjects (%) | Side effect: Laryngopharynx pain (Disturbance in respiratory organ, chest and mediastinum) (40 mg, 6 weeks, 50 subjects): 1 (2) number of subjects (%) | Side effect: Loose stools (Gastroenteric disturbance) (40 mg, 6 weeks, 50 subjects): 0 (0) number of subjects (%) | Side effect: Melalgia (Musculoskeletal system and connective tissue disorder) (40 mg, 6 weeks, 50 subjects): 0 (0) number of subjects (%) | Side effect: Muscle stiffness (Musculoskeletal system and connective tissue disorder) (40 mg, 6 weeks, 50 subjects): 2 (4) number of subjects (%) | Side effect: Myalgic pain (Musculoskeletal system and connective tissue disorder) (40 mg, 6 weeks, 50 subjects): 0 (0) number of subjects (%) | Side effect: Nausea (Gastroenteric disturbance) (40 mg, 6 weeks, 50 subjects): 4 (8) number of subjects (%) | Side effect: Nightmare (Mental disturbance) (40 mg, 6 weeks, 50 subjects): 0 (0) number of subjects (%) | Side effect: Palpitation (Heart problems) (40 mg, 6 weeks, 50 subjects): 0 (0) number of subjects (%) | Side effect: Parotiditis (Infection and parasitosis) (40 mg, 6 weeks, 50 subjects): 0 (0) number of subjects (%) | Side effect: Polyuria (Renal Injury and urinary disorder) (40 mg, 6 weeks, 50 subjects): 0 (0) number of subjects (%) | Side effect: Pruritus (Disturbance in Skin and Hypodermis) (40 mg, 6 weeks, 50 subjects): 0 (0) number of subjects (%) | Side effect: Psychosis aggravated (Mental disturbance) (40 mg, 6 weeks, 50 subjects): 0 (0) number of subjects (%) | Side effect: Restlessness (Mental disturbance) (40 mg, 6 weeks, 50 subjects): 1 (2) number of subjects (%) | Side effect: Salivary hypersecretion (Gastroenteric disturbance) (40 mg, 6 weeks, 50 subjects): 0 (0) number of subjects (%) | Side effect: Sinus tachycardia (Heart problems) (40 mg, 6 weeks, 50 subjects): 0 (0) number of subjects (%) | Side effect: Sleepiness (Total disability and local condition) (40 mg, 6 weeks, 50 subjects): 1 (2) number of subjects (%) | Side effect: Suppression (Nervous system disorder) (40 mg, 6 weeks, 50 subjects): 9 (18) number of subjects (%) | Side effect: Tinea pedis (Infection and parasitosis) (40 mg, 6 weeks, 50 subjects): 0 (0) number of subjects (%) | Side effect: Tongue disturbance (Gastroenteric disturbance) (40 mg, 6 weeks, 50 subjects): 1 (2) number of subjects (%) | Side effect: Tremor (Nervous system disorder) (40 mg, 6 weeks, 50 subjects): 3 (6) number of subjects (%) | Side effect: Trismus (Nervous system disorder) (40 mg, 6 weeks, 50 subjects): 0 (0) number of subjects (%) | Side effect: Urinary tract infection (Infection and parasitosis) (40 mg, 6 weeks, 50 subjects): 1 (2) number of subjects (%) | Side effect: Vomiting (Gastroenteric disturbance) (40 mg, 6 weeks, 50 subjects): 2 (4) number of subjects (%) | Side effect: Weight loss (Laboratory assay) (40 mg, 6 weeks, 50 subjects): 1 (2) number of subjects (%) | Akathisia (adverse event) (40 mg-treated group): 8% | Exacerbation of schizophrenia (adverse event) (40 mg-treated group): 4% | Ratio of the subjects showing suppression (40 mg-treated group): 18% | Serious adverse events (40 mg-treated group): 3 cases | Number of subjects showing adverse events (%) (120 mg orally once a day for 6 weeks, 49 subjects): 38 (78) number of subjects (%)
